This note sets out measurements from patent publication US11420944B2, “Voltage-dependent t-type calcium channel blocker” (Nippon Chemiphar Co., Ltd., priority 2016, dated 2022).

One series deals with T1, CYP3A4 (Homo sapiens, UniProt P08684).
T1 construct: purchased Cypex, Ltd; host or cells: E. coli membranes (Bactosomes)
Kind of series: Evaluation of CYP3A4 activity inhibitory action. In kind it is in vitro ADME. The following applies: Human CYP3A4BR EasyCYP Bactosomes, 7-Benzyloxy-4-(trifluoromethyl)-coumarin. How it is done:
Evaluation of CYP3A4 Activity Inhibitory Action
To a 50 mM potassium phosphate buffer solution (pH 7.4), 5 nM Human CYP3A4BR EasyCYP Bactosomes (Cypex, Ltd.), 50 μM 7-Benzyloxy-4-(trifluoromethyl)-coumarin, cofactor mix (0.0081 mM β-NADP^+, 0.4 mM G-6-P, 0.4 mM MgCl2, and 0.2 U/mL G-6-P DH(Y)), and 0.01% Pluronic F-127 were added, and the mixture was incubated for 45 minutes at 37° C. The reaction was initiated by adding the cofactor mix. After the incubation, 0.5 M Tris base/acetonitrile (20:80) was added thereto as a reaction terminating liquid, and the resulting mixture was stirred. Subsequently, the fluorescence intensity (excitation: 405 nm, emission: 535 nm) was measured. The reaction was carried out in duplicate. The results are presented as the inhibition rate at 10 μM of the test compound.

Series [1] has as its target T2, human Cav3.2 channels (Homo sapiens, UniProt O95180).
T2 construct: expressed in transfected cells; host or cells: HEK293 cells (ATCC No. CRL-1573), plasmid pcDNA3.1(+)
Put plainly: Intracellular calcium concentration measurement (Fluo-4 AM) in stable cells expressing human Cav3.2 channels, buffer A / buffer B. In kind it is cell-based. The procedure, abridged: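 State-dependent Cav3.2 inhibition compared in two buffers differing in potassium equilibrium potential (−92 vs −110 mV). Stable HEK293 line, Fluo-4 dye; compound 15 min, room temperature, dark, then KCl addition (83.8 or 91.8 mM) triggers calcium influx read 10 s; IC50 from peak increment over baseline.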

In series [2] the target is T2, human Cav3.2 channels. Put plainly: Electrophysiological evaluation, whole-cell patch-clamp with automatic patch-clamp system. Type of series: cell-based. Conditions: 0.3 μM, holding potential −80 mV; read-out: Cav3.2 channel current inhibition ratio at 0.3 μM of test compound (holding potential −80 mV). How it is done: Electrophysiological Evaluation
Stable cell line expressing human Cav3.2 channels, which had been produced by Test method (1) of Example 140, was seeded in a 10-cm dish using DMEM medium containing 10% FBS, and the cells were cultured for 24 hours or longer under the conditions of 37° C. and 5% CO2. The cells were detached using Accutase and were used after being suspended in ice-cold extracellular solution. The Cav3.2 channel current was measured by the Whole-cell patch-clamp method using an automatic patch-clamp system (Port-a-Patch; Nanion Technologies GmbH, EPC-10; HEKA Elektronik GmbH, Patchmaster; HEKA Elektronik GmbH) and buffers described below. Measurement of the Cav3.2 channel current was carried out at room temperature, and the measurement conditions were set as follows: holding potential: −80 mV, depolarization potential: −20 mV, depolarization time: 100 msec, and depolarization frequency: 10 sec. The Cav3.2 channel current was defined as the peak value of the inward current observed when depolarization occurred at −20 mV.
For a test compound, a DMSO solution was diluted 1,000 times with extracellular solution, and thus a solution having an intended concentration was produced. The test compound was applied using an extracellular perfusion system (Nanion Technologies GmbH) until the Cav3.2 channel current was stabilized, and five concentrations at the maximum from the low-concentration side were cumulatively applied. The inhibition ratio of the test compound was calculated from the current value immediately before the application of the test compound and the change rate of the Cav3.2 channel current after the application of the test compound (conditions for a holding potential of −80 mV: test compound concentration of 0.3 μM, conditions for a holding potential of −100 mV: test compound concentration of 3 μM).
Extracellular solution: 135 mM NaCl, 4 mM KCl, 1 mM MgCl2, 5 mM CaCl2, 5 mM D-Glucose, and 10 mM HEPES, pH 7.4
Internal solution for electrode: 10 mM NaCl, 10 mM HEPES, 50 mM CsCl, 60 mM CsF, and 20 mM EGTA, pH 7.2

The mark [3] stands for this setting: Tables 2 to 6, buffer A, equilibrium potential of potassium −92 mV, read-out: Inhibitory action of buffer A (inactivated state).
The mark [4] stands for this setting: Table 1, buffer A, equilibrium potential of potassium −92 mV, read-out: Inhibitory action of buffer A (inactivated state).
The mark [5] stands for this setting: Table 1, buffer B, equilibrium potential of potassium −110 mV, read-out: Inhibitory action of buffer B (resting state or closed state).

Where two headings read alike, the source gives them in different places.

T1 sequence (P08684 whole entry): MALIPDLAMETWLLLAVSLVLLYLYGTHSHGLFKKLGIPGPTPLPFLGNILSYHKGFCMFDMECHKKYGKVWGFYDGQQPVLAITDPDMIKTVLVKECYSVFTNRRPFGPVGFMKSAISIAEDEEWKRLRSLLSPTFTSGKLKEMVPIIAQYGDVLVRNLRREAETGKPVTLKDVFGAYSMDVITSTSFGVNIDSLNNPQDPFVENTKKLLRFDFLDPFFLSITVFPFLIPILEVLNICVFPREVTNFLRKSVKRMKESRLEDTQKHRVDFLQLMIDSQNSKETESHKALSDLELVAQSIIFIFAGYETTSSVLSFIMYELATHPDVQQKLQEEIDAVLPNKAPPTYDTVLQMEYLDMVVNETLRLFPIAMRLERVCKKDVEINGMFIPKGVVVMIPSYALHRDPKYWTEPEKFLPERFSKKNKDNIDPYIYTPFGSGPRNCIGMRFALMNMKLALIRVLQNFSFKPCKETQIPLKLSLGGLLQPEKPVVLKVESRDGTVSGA
T2 sequence (O95180 whole entry): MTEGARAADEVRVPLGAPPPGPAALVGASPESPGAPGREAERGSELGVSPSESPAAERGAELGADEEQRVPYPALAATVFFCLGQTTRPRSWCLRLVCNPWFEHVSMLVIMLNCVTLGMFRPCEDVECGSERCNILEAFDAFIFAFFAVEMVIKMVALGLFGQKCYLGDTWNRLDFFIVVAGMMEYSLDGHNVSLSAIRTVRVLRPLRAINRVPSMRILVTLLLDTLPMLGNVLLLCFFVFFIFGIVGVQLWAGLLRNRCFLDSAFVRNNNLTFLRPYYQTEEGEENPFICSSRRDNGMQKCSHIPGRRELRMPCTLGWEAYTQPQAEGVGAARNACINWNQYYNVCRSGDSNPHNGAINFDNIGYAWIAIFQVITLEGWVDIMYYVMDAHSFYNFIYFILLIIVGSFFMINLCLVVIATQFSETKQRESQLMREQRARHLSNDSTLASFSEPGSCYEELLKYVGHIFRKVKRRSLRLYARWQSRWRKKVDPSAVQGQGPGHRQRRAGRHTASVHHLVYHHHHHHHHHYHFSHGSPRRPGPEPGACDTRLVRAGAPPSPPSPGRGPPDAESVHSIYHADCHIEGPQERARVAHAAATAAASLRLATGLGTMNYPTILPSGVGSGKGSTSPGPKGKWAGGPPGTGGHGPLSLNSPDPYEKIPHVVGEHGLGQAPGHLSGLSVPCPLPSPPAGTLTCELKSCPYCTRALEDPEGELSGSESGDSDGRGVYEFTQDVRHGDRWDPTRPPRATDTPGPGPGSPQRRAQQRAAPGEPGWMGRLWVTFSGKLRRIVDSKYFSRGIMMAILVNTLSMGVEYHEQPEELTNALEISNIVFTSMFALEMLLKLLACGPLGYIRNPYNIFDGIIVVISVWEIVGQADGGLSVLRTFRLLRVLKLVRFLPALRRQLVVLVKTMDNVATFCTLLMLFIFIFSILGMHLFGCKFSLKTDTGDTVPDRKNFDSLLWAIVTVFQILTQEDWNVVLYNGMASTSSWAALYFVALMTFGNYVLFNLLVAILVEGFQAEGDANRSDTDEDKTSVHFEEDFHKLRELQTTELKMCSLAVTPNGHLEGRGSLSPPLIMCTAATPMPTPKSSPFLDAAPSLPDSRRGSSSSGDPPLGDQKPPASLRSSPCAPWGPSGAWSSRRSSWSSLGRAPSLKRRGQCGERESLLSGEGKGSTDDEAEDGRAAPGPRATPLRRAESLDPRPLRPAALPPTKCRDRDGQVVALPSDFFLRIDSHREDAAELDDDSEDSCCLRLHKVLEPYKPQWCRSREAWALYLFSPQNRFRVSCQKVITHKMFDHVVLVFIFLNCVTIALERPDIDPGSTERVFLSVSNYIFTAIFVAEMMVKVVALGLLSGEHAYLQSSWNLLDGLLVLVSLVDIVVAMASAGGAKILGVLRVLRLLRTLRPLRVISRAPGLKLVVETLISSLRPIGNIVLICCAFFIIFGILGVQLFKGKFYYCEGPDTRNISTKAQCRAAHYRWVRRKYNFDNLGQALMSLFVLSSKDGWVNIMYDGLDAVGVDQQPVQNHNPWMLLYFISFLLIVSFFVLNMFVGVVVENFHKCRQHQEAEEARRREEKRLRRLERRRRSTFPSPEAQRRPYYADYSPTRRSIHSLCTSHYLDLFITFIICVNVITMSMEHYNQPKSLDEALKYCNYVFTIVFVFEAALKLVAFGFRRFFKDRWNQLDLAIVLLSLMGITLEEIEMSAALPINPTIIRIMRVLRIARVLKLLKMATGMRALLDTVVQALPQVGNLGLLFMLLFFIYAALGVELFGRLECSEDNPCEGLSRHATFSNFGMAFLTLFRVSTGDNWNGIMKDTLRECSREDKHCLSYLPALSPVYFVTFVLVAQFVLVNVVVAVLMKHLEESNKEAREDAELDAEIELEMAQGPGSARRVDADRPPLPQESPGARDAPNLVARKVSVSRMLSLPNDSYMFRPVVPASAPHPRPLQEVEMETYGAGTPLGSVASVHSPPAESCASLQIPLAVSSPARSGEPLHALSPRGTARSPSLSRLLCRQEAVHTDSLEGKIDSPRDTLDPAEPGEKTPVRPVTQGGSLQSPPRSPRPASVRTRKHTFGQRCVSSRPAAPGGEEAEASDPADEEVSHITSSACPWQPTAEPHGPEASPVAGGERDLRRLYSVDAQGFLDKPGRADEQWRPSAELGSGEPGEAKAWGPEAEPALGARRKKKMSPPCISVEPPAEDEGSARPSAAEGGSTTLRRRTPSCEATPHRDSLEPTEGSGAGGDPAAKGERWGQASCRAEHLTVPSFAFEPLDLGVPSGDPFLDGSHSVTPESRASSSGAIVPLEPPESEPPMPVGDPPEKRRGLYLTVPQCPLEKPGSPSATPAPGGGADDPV

Consider `C[C@@H](NC(=O)C1CC1c1nccn1C)c1ccc(OCC(F)(F)F)s1` (mixture of isomers) [Example 20, Trans-2-(1-methyl-1H-imidazol-2-yl)-N—((R)-1-(5-(2,2,2-trifluoroethoxy)thiophen-2-yl)ethyl)cyclopropane-1-carboxamide], for which, at CYP3A4, the “CYP3A4 activity inhibition ratio at 10 μM of test compound” value (from here on “CYP3A4 activity inhibition ratio”) amounted to 27.4%. Also, the IC50 on human Cav3.2 channels [1] (setting [3]) lay within 1000 to 10000 nM.
With `C[C@@H](NC(=O)C1CC1c1nc2ccccc2n1C)c1ccc(OCC(F)(F)F)s1` (single isomer, unassigned) [Example 4A], the “CYP3A4 activity inhibition ratio” value at CYP3A4 worked out at 39.6%. Further, the inhibition at 0.3 µM at human Cav3.2 channels [2] was 58%. Besides, the IC50 is at most 100 nM on human Cav3.2 channels [1] (setting [4]) and above 10000 nM on human Cav3.2 channels [1] (setting [5]).
Turning to `C[C@@H](NC(=O)C1CC1c1nc2ccccc2[nH]1)c1ccc(C(F)(F)F)s1` (single isomer, unassigned) [Example 5A], at CYP3A4, the “CYP3A4 activity inhibition ratio” value is on record as 13.0%. Also, at human Cav3.2 channels [2], the inhibition at 0.3 µM was 59%. Also, the IC50 at human Cav3.2 channels [1] (setting [4]) and at human Cav3.2 channels [1] (setting [5]) was 100 to 1000 nM each time.
For `C[C@@H](NC(=O)C1CC1c1c[nH]c2ccccc12)c1ccc(OCC(F)(F)F)s1` (single isomer, unassigned) [Example 21A], the “CYP3A4 activity inhibition ratio” value at CYP3A4 was 16.9%. Moreover, the IC50 on human Cav3.2 channels [1] (setting [3]) fell in the range of 100 to 1000 nM.
For `C[C@@H](NC(=O)C1CC1c1c[nH]c2ccccc12)c1ccc(OCC(F)(F)F)s1` (single isomer, unassigned) [Example 21B], the “CYP3A4 activity inhibition ratio” value at CYP3A4 is listed as 23.3%. Also, the IC50 on human Cav3.2 channels [1] (setting [3]) was 100 to 1000 nM.
In the case of `C[C@@H](NC(=O)C1CC1c1ccc2cnn(C)c2c1)c1ccc(OCC(F)(F)F)s1` (single isomer, unassigned) [Example 22A], the “CYP3A4 activity inhibition ratio” value at CYP3A4 turned out to be 12.2%. Besides, the inhibition at 0.3 µM on human Cav3.2 channels [2] was 81%. The IC50 on human Cav3.2 channels [1] (setting [3]) lay in the range of 100 to 1000 nM.
For `C[C@@H](NC(=O)C1CC1c1nc2ccccc2[nH]1)c1ccc(C(=O)O)s1` (single isomer, unassigned) [Example 26], the “CYP3A4 activity inhibition ratio” value at CYP3A4 was 11.3%. Besides, on human Cav3.2 channels [2], the inhibition at 0.3 µM was determined as 19%. For the same compound, on human Cav3.2 channels [1] (setting [3]), the IC50 is 100 to 1000 nM.
As to `C[C@@H](NC(=O)C1CC1c1nc(-c2ccccc2)c[nH]1)c1ccc(OCC(F)(F)F)s1` (single isomer, unassigned) [Example 31A], the “CYP3A4 activity inhibition ratio” value on CYP3A4 turned out to be 7.0%. Further, the IC50 at human Cav3.2 channels [1] (setting [3]) was in the range of 100 to 1000 nM.
As to `CCn1c(C2CC2C(=O)N[C@H](C)c2ccc(OCC(F)(F)F)s2)nc2ccccc21` (single isomer, unassigned) [Example 54], at CYP3A4, the “CYP3A4 activity inhibition ratio” value was −1.1%. The IC50 at human Cav3.2 channels [1] (setting [3]) was at most 100 nM.
For the compound `C[C@@H](NC(=O)C1CC1c1nc2cc(Cl)ccc2[nH]1)c1cnc(OCC(F)(F)F)s1` (single isomer, unassigned) [Example 64A], the “CYP3A4 activity inhibition ratio” value on CYP3A4 is 4.4%. Also, the inhibition at 0.3 µM at human Cav3.2 channels [2] turned out to be 52%. Moreover, the IC50 on human Cav3.2 channels [1] (setting [3]) is at most 100 nM.
Take `CCN(CC)C(=O)c1ccc([C@@H](C)NC(=O)C2CC2c2nc3ccccc3[nH]2)s1` (stereo in doubt) [Example 32, Trans-5-((1R)-1-(2-(1H-benzo[d]imidazol-2-yl)cyclopropane-1-carboxamido)ethyl)-N,N-diethylthiophene-2-carboxamide]: the “CYP3A4 activity inhibition ratio” value at CYP3A4 is recorded as 23.3%. For the same compound, on human Cav3.2 channels [1] (setting [3]), the IC50 lay within 100 to 1000 nM.
As to `C[C@@H](NC(=O)C1CC1c1nc2ccccc2[nH]1)c1ccc(C(=O)N2CCCCC2)s1` (stereo in doubt) [Example 61, Trans-2-(1H-benzo[d]imidazol-2-yl)-N—((R)-1-(5-(piperidine-1-carbonyl)thiophen-2-yl)ethyl)cyclopropane-1-carboxamide], the “CYP3A4 activity inhibition ratio” value on CYP3A4 is reported as 4.5%. Moreover, at human Cav3.2 channels [2], the inhibition at 0.3 µM was found to be 53%. Moreover, at human Cav3.2 channels [1] (setting [3]), the IC50 was in the range of 100 to 1000 nM.
For the compound `C[C@@H](NC(=O)[C@@H]1CCN(c2nc3ccccc3[nH]2)C1)c1ccc(OCC(F)(F)F)s1` [Example 12], the “CYP3A4 activity inhibition ratio” value at CYP3A4 came out at 84.4%. The IC50 on human Cav3.2 channels [1] (setting [4]) lay within 100 to 1000 nM; at human Cav3.2 channels [1] (setting [5]), 1000 to 10000 nM.
As to `CC(C(=O)Nc1ccccc1)N1CC[C@@H](C(=O)N[C@H](C)c2ccc(OCC(F)(F)F)s2)C1` (stereo partly drawn) [Example 24, (3R)-1-(1-oxo-1-(phenylamino)propan-2-yl)-N—((R)-1-(5-(2,2,2-trifluoroethoxy)thiophen-2-yl)ethyl)pyrrolidine-3-carboxamide], the “CYP3A4 activity inhibition ratio” value at CYP3A4 was found to be 51.1%. Also, at human Cav3.2 channels [1] (setting [3]), the IC50 fell in the range of 100 to 1000 nM.
The like results for `C[C@@H](NC(=O)[C@H]1C[C@@H]1c1nc2ccccc2[nH]1)c1ccc(C(=O)N2CCCC2)s1` [Example 33, Trans-2-(1H-benzo[d]imidazol-2-yl)-N—((R)-1-(5-(pyrrolidine-1-carbonyl)thiophen-2-yl)ethyl)cyclopropane-1-carboxamide] were, in that order, −12.8% and 100 to 1000 nM.
For `C[C@@H](NC(=O)[C@H]1C[C@@H]1c1nc2ccccc2[nH]1)c1ccc2cc[nH]c2c1` [Example 58, (1S,2S)—N—((R)-1-(1H-indol-6-yl)ethyl)-2-(1H-benzo[d]imidazol-2-yl)cyclopropane-1-carboxamide], in that order: 53.5% and 100 to 1000 nM.
On to `C[C@@H](NC(=O)[C@H]1C[C@@H]1c1nc2ccccc2[nH]1)c1cc2cc(C(F)(F)F)ccc2o1` [Example 109, (1S,2S)-2-(1H-benzo[d]imidazol-2-yl)-N—((R)-1-(5-(trifluoromethyl)benzofuran-2-yl)ethyl)cyclopropane-1-carboxamide], for which, at CYP3A4, the “CYP3A4 activity inhibition ratio” value came out at 24.1%. The IC50 on human Cav3.2 channels [1] (setting [3]) was in the range of 100 to 1000 nM.
For `C[C@@H](NC(=O)[C@H]1C[C@@H]1c1nc2ccccc2[nH]1)c1cc2ccc(C(F)(F)F)cc2o1` [Example 123, (1S,2S)-2-(1H-benzo[d]imidazol-2-yl)-N—((R)-1-(6-(trifluoromethyl)benzofuran-2-yl)ethyl)cyclopropane-1-carboxamide], in that order: 11.7% and at most 100 nM.
For the compound `CC(C)[C@@H](NC(=O)[C@H]1C[C@@H]1c1nc2ccccc2[nH]1)c1cc2ccc(F)cc2o1` [Example 124, (1S,2S)-2-(1H-benzo[d]imidazol-2-yl)-N—((R)-1-(6-fluorobenzofuran-2-yl)-2-methylpropyl)cyclopropane-1-carboxamide], the “CYP3A4 activity inhibition ratio” value at CYP3A4 came to 28.6%. Moreover, on human Cav3.2 channels [1] (setting [3]), the IC50 is at most 100 nM.
The like results for `C[C@@H](NC(=O)[C@H]1C[C@@H]1c1nc2cc(F)ccc2[nH]1)c1cc2cc(F)ccc2o1` [Example 125, (1S,2S)-2-(5-fluoro-1H-benzo[d]imidazol-2-yl)-N—((R)-1-(5-fluorobenzofuran-2-yl)ethyl)cyclopropane-1-carboxamide] were, in that order, 25.0% and at most 100 nM.
Turning to `C[C@H](c1cc2ccc(F)cc2o1)N(C)C(=O)[C@H]1C[C@@H]1c1nc2ccccc2[nH]1` [Example 129, (1S,2S)-2-(1H-benzo[d]imidazol-2-yl)-N—((R)-1-(6-fluorobenzofuran-2-yl)ethyl)-N-methylcyclopropane-1-carboxamide], at CYP3A4, the “CYP3A4 activity inhibition ratio” value amounted to 56.0%. Moreover, the IC50 at human Cav3.2 channels [1] (setting [3]) was 100 to 1000 nM.
